Measurements as given in US20240360067A1, “DERIVATIVES OF ITACONIC ACID AND THEIR USE AS ANTI-INFLAMMATORY AGENTS” (Sitryx Therapeutics Limited, priority 2021, published 2024).
pEC50, pIC50: −log10 of the molar value.

Columns and labels:
[1] = tested on: IL-1β; experiment: THP-1 AlphaLISA IL-1β cytokine assay (PMA-differentiated THP-1, LPS then nigericin); type: cell-based; conditions: 30 min pre-incubation, LPS 24 hr, nigericin 1 hour
Experimental: (§1) Measuring Inhibitory Effects on IL-1β, and IL-6 Cytokine Output from THP-1s
(§2) The cytokine inhibition profiles of compounds of formula (I) were determined in a differentiated THP-1 cell assay. All assays were performed in RPMI-1640 growth medium (Gibco), supplemented with 10% fetal bovine serum (FBS; Gibco), 1% penicillin-streptomycin and 1% sodium pyruvate unless specified otherwise. The IL-1β and IL-6 cytokine inhibition assays were each run in a background of differentiated THP-1 cells as described below. All reagents described were from Sigma-Aldrich unless specified otherwise. Compounds were prepared as 10 mM DMSO stocks.
(§3) THP-1 cells were expanded as a suspension up to 80% confluence in appropriate growth medium. Cells were harvested, suspended, and treated with an appropriate concentration of phorbol 12-myristate 13-acetate (PMA) over a 72 hr period (37° C./5% CO2).
(§4) Following 72 hrs of THP-1 cell incubation, cellular medium was removed and replaced with fresh growth media containing 1% of FBS. Working concentrations of compounds were prepared separately in 10% FBS treated growth medium and pre-incubated with the cells for 30 minutes (37° C./5% CO2). Following the 30 minute compound pre-incubation, THP-1s were treated with an appropriate concentration of LPS and the THP-1s were subsequently incubated for a 24 hr period (37° C./5% CO2). An appropriate final concentration of Nigericin was then dispensed into the THP-1 plates and incubated for 1 hour (37° C./5% CO2) before THP-1 supernatants were harvested and collected in separate polypropylene 96-well holding plates.
(§5) Reagents from each of the IL-1β and IL-6 commercial kits (Perkin Elmer) were prepared and run according to the manufacturer's instructions. Subsequently, fluorescence signal detection in a microplate reader was measured (EnVision® Multilabel Reader, Perkin Elmer).
(§6) Percentage inhibition was calculated per cytokine by normalizing the sample data to the high and low controls used within each plate (+/−LPS respectively).

[2] = Hepatocyte stability assay, mouse; type: in vitro ADME; conditions: 10 μM compound, 0.5×10^6 cells/mL, 60 min; for half-life at 10 μM: cryo-preserved hepatocytes, read-out: T½
Description: (§7) Defrosted cryo-preserved hepatocytes (viability >70%) were used to determine the metabolic stability of a compound via calculation of intrinsic clearance (CIint; a measure of the removal of a compound from the liver in the absence of blood flow and cell binding). Clearance data are particularly important for in vitro work as they can be used in combination with in vivo data to predict the half-life and oral bioavailability of a drug.
(§8) The metabolic stability in hepatocytes assay involved a time-dependent reaction using both positive and negative controls. The cells must be pre-incubated at 37° C. then spiked with test compound (and positive control); samples taken at pre-determined time intervals were analysed to monitor the change in concentration of the initial drug compound over 60 minutes. A buffer incubation reaction (with no hepatocytes present) acted as a negative control and two cocktail solutions, containing compounds with known high and low clearance values (verapamil/7-hydroxycoumarin and propranolol/diltiazem), acted as positive controls. • 1. The assay was run with a cell concentration of 0.5×10^6 cells/mL in Leibovitz buffer. • 2. All compounds and controls were run in duplicate. • 3. Compound concentration was 10 μM. • 4. All compounds and controls were incubated with both cells and buffer to show turnover is due to hepatic metabolism. • 5. All wells on the incubation plate had 326.7 μL of either cells or buffer added. • 6. Prior to assay, cell and buffer-only incubation plates were preincubated for 10 mins at 37° C. • 7. The assay was initiated by adding compounds, 3.3 μL of 1 mM in 10% DMSO-90% Buffer; final DMSO concentration is 0.1%. • 8. Samples were taken at regular timepoints (0, 5, 10, 20, 40, 60 min) until 60 mins. • 9. Sample volume was 40 μL and added to 160 μL of crash solvent (acetonitrile with internal standard) and stored on ice. • 10. At the end of the assay, the crash plates were centrifuged at 3500 rpm for 20 mins at 4° C. • 11. 80 μL of clear supernatant was removed and mixed with 80 μL of deionised water before being analysed by LC-MS/MS.
(§9) Raw LC-MS/MS data were exported to, and analysed in, Microsoft Excel for determination of intrinsic clearance. The percentage remaining of a compound was monitored using the peak area of the initial concentration as 100%. Intrinsic clearance and half-life values were calculated using a graph of the natural log of percentage remaining versus the time of reaction in minutes.

[3] = Hepatocyte stability assay, human; type: in vitro ADME; conditions: 10 μM compound, 0.5×10^6 cells/mL, 60 min; for half-life at 10 μM: cryo-preserved hepatocytes, read-out: T½
Description: as §7, §8, §9

[4] = tested on: IL-6; experiment: THP-1 AlphaLISA IL-6 cytokine assay (PMA-differentiated THP-1, LPS then nigericin); type: cell-based; conditions: differentiated THP-1 cells, 30 min pre-incubation, LPS 24 hr, nigericin 1 hour
Experimental: as §1, §2, §3, §4, §5, §6

[5] = tested on: NRF2; experiment: NRF2 activation assay (DiscoverX PathHunter NRF2 translocation kit, U2OS cells); type: cell-based; conditions: for pEC50: U2OS PathHunter cells, 6 hours; for Emax: U2OS
[6] = Homo sapiens, THP-1, differentiated THP-1 cells
[7] = Homo sapiens, +GSH, normalised to dimethyl fumarate high control
[8] = Homo sapiens, −GSH, normalised to dimethyl fumarate high control

| Structure (SMILES) | pIC50 [1, 6] | CIint ([2]; Mouse hepatocytes) | half-life at 10 μM [2] | CIint ([3]; Human hepatocytes) | half-life at 10 μM [3] | pIC50 ([4]; Homo sapiens) | pIC50 ([1]; differentiated THP-1 cells) | pIC50 [4] | pEC50 ([5]; −GSH) | NRF2 activation Emax, −GSH ([5]; −GSH, normalised to dimethyl fumarate high control) | T½ ([2]; Mouse hepatocytes) | T½ ([3]; Human hepatocytes) | Emax [5, 7] | Emax [5, 8] | pEC50 ([5]; Homo sapiens, +GSH) | pEC50 ([5]; Homo sapiens, −GSH) |
| --- | --- | --- | --- | --- | --- | --- | --- | --- | --- | --- | --- | --- | --- | --- | --- | --- |
| C=C(CC(=O)O)C(=O)OC1CCCc2cc(C(F)(F)F)ccc21 (single isomer, unassigned) [Example 7, 3-(((6-(trifluoromethyl)-1,2,3,4-tetrahydronaphthalen-1-yl)oxy)carbonyl)but-3-enoic acid] | 5.10 | 11 μL min^−1 10^−6 cells | 1.97 h | 8 μL min^−1 10^−6 cells | 3.65 h | 4.18 |  |  |  |  |  |  |  |  |  |  |
| C=C(CC(=O)O)C(=O)OC [1-monomethyl itaconate, reference compound] |  |  |  |  |  |  | < 4.00 | < 4.00 | 4.52 | 44% |  |  |  |  |  |  |
| C=C(CC(=O)OCCCCCCCC)C(=O)O [4-octyl itaconate, reference compound] |  | 351 μL min^−1 10^−6 cells |  | 401 μL min^−1 10^−6 cells |  |  |  |  |  |  | 4 min | 4 min |  |  |  |  |
| C=C(CC(=O)O)C(=O)O[C@@H](C)c1ccc(C(F)(F)F)cc1 [Example 1, (S)-3-((1-(4-(trifluoromethyl)phenyl)ethoxy)carbonyl)but-3-enoic acid] | 5.27 | <3 μL min^−1 10^−6 cells | > 7.67 h | <3 μL min^−1 10^−6 cells | > 7.67 h | 4.26 |  |  |  |  |  |  |  |  |  |  |
| C=C(CC(=O)O)C(=O)OC1(c2ccc(C(F)(F)F)cc2)CCC1 [Example 2, 3-((1-(4-(trifluoromethyl)phenyl)cyclobutoxy)carbonyl)but-3-enoic acid] | 5.36 | <3 μL min^−1 10^−6 cells | > 7.67 h | 9 μL min^−1 10^−6 cells | 2.1 h | < 4.00 |  |  |  |  |  |  | 14% | 26% | < 4.00 | < 4.00 |
| C=C(CC(=O)O)C(=O)OC1(c2ccc(C(F)(F)F)c(F)c2)CCC1 [Example 3, 3-((1-(3-fluoro-4-(trifluoromethyl)phenyl)cyclobutoxy)carbonyl)but-3-enoic acid] | 5.32 | <3 μL min^−1 10^−6 cells | > 7.67 h | <3 μL min^−1 10^−6 cells | > 7.67 h | 4.27 |  |  |  |  |  |  |  |  |  |  |
| C=C(CC(=O)O)C(=O)OC1(c2ccc(C(F)(F)F)cc2)COC1 [Example 4, 3-(((3-(4-(trifluoromethyl)phenyl)oxetan-3-yl)oxy)carbonyl)but-3-enoic acid] | 5.04 | 8 μL min^−1 10^−6 cells | 3.65 h | 6 μL min^−1 10^−6 cells | 5.23 h | < 4.00 |  |  |  |  |  |  |  |  |  |  |
| C=C(CC(=O)O)C(=O)OC1(c2ccc(C(F)(F)F)cn2)CCC1 [Example 5, 3-((1-(5-(trifluoromethyl)pyridin-2-yl)cyclobutoxy)carbonyl)but-3-enoic acid] | 5.05 | <3 μL min^−1 10^−6 cells | > 7.67 h | <3 μL min^−1 10^−6 cells | > 7.67 h | < 4.50 |  |  |  |  |  |  |  |  |  |  |
| C=C(CC(=O)O)C(=O)OC1(c2ccc(C(F)(F)F)s2)CCC1 [Example 6, 3-((1-(5-(trifluoromethyl)thiophen-2-yl)cyclobutoxy)carbonyl)but-3-enoic acid] | 5.02 | <3 μL min^−1 10^−6 cells | > 7.67 h | 13 μL min^−1 10^−6 cells | 2.38 h | < 4.00 |  |  |  |  |  |  |  |  |  |  |
| C=C(CC(=O)OC)C(=O)OC1(c2ccc(C(F)(F)F)cc2)CCC1 [Example 8, 4-methyl 1-(1-(4-(trifluoromethyl)phenyl)cyclobutyl) 2-methylenesuccinate] | 5.12 | >460 μL min^−1 10^−6 cells | < 0.05 h | >460 μL min^−1 10^−6 cells | < 0.05 h | 4.97 |  |  |  |  |  |  | 38% | 51% | < 4.00 | 4.29 |
| C=C(CC(=O)NC)C(=O)OC1(c2ccc(C(F)(F)F)cc2)CCC1 [Example 9, 1-(4-(trifluoromethyl)phenyl)cyclobutyl 4-(methylamino)-2-methylene-4-oxobutanoate] | 4.90 | 449 μL min^−1 10^−6 cells | 0.05 h | 27 μL min^−1 10^−6 cells | 0.733 h | 4.95 |  |  |  |  |  |  |  |  |  |  |
| C=C(CC(=O)N(C)C)C(=O)OC1(c2ccc(C(F)(F)F)cc2)CCC1 [Example 10, 1-(4-(trifluoromethyl)phenyl)cyclobutyl 4-(dimethylamino)-2-methylene-4-oxobutanoate] | 4.22 | >460 μL min^−1 10^−6 cells | < 0.05 h | 98 μL min^−1 10^−6 cells | 0.2 h | 4.86 |  |  |  |  |  |  |  |  |  |  |
| C=C(CC(N)=O)C(=O)OC1(c2ccc(C(F)(F)F)cc2)CCC1 [Example 11, 1-(4-(trifluoromethyl)phenyl)cyclobutyl 4-amino-2-methylene-4-oxobutanoate] | 5.00 | 162 μL min^−1 10^−6 cells | 0.15 h | 9 μL min^−1 10^−6 cells | 2.32 h | 4.88 |  |  |  |  |  |  | 100% | 117% | 4.34 | 4.48 |
| C=C(CC(=O)NCCN(C)C)C(=O)OC1(c2ccc(C(F)(F)F)cc2)CCC1 [Example 12, 1-(4-(trifluoromethyl)phenyl)cyclobutyl 4-((2-(dimethylamino)ethyl)amino)-2-methylene-4-oxobutanoate] | 5.51 | 138 μL min^−1 10^−6 cells | 0.15 h | 59 μL min^−1 10^−6 cells | 0.417 h | 5.40 |  |  |  |  |  |  |  |  |  |  |
| C=C(CC(=O)NCc1nccn1C)C(=O)OC1(c2ccc(C(F)(F)F)cc2)CCC1 [Example 16, 1-(4-(trifluoromethyl)phenyl)cyclobutyl 4-(((1-methyl-1H-imidazol-2-yl)methyl)amino)-2-methylene-4-oxobutanoate] | 5.23 | >460 μL min^−1 10^−6 cells | < 0.05 h | 114 μL min^−1 10^−6 cells | 0.183 h | 5.28 |  |  |  |  |  |  |  |  |  |  |
| C=C(CC(=O)NC(CO)C(N)=O)C(=O)OC1(c2ccc(C(F)(F)F)cc2)CCC1 (stereo not drawn) [Example 17, 1-(4-(trifluoromethyl)phenyl)cyclobutyl 4-((1-amino-3-hydroxy-1-oxopropan-2-yl)amino)-2-methylene-4-oxobutanoate] | 4.82 |  |  |  |  | 4.91 |  |  |  |  |  |  |  |  |  |  |
| C=C(CC(=O)OC)C(=O)OC [dimethyl itaconate, reference compound] | < 4.00 |  |  |  |  | < 4.00 |  |  |  |  |  |  |  |  |  |  |
